Results taken from patent US20060281763A1, “Carboxamide inhibitors of TGFbeta” (priority 2005, published 2006).

Target: T1, TGFβ R1 (Homo sapiens, UniProt P36897)
T1 sequence (P36897 34-503): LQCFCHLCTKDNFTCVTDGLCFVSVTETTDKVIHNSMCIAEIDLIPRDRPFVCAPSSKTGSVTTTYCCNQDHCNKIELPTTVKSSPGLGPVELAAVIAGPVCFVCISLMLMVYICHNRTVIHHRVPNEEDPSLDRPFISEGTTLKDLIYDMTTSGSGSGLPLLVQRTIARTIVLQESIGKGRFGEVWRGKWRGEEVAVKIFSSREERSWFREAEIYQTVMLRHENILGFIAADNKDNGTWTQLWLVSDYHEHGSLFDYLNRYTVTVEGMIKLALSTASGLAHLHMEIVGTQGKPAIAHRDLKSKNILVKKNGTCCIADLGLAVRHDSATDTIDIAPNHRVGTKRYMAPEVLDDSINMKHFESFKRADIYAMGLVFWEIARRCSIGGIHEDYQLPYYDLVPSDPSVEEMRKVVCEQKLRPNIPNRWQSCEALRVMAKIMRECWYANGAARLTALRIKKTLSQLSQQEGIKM
Test: TGFβ R1 autophosphorylation protocol (33P-ATP, phosphocellulose filter plate)
Assay type: biochemical
Details: 10 uM ATP, 170 nM TGFβ R1, 20 minutes at room temperature, read-out: IC50 for Kinase Inhibition
Procedure: The compounds of the invention were tested for their ability to inhibit TGFβ by a TGFβ R^1 autophosphorylation protocol. This was conducted as follows: Compound dilutions and reagents were prepared fresh daily. Compounds were diluted from DMSO stock solutions to 2 times the desired assay concentration, keeping final DMSO concentration in the assay less than or equal to 1%. TGFβ R1 was diluted to 4 times the desired assay concentration in buffer+DTT. ATP was diluted into 4× reaction buffer, and gamma-^33P-ATP was added at 60 uCi/mL.
The assay was performed by adding 10 ul of the enzyme to 20 ul of the compound solution. The reaction was initiated by the addition of 10 ul of ATP mix. Final assay conditions included 10 uM ATP, 170 nM TGFβ R1, and […] in 20 mM MOPS, pH7. The reactions were incubated at room temperature for 20 minutes. The reactions were stopped by transferring 23 ul of reaction mixture onto a phosphocellulose 96-well filter plate, which had been pre-wetted with 15 ul of 0.25M H3PO4 per well. After 5 minutes, the wells were washed 4× with 75 mM H3PO4 and once with 95% ethanol. The plate was dried, scintillation cocktail was added to each well, and the wells were counted in a Packard TopCount microplate scintillation counter.

IC50 [nM] | Structure (SMILES)
50 | COc1cnc(-c2cc(Cl)ccc2F)nc1Nc1ccncc1C(=O)NCCN [Compound 39, N-(2-Amino-ethyl)-4-[2-(5-chloro-2-fluoro-phenyl)-5-methoxy-pyrimidin-4-ylamino]-nicotinamide]
120 | COc1cnc(-c2cc(Cl)ccc2F)nc1Nc1ccncc1C(=O)NCCCN/C(=N/C#N)NC(C)C [Compound 42]
760 | COc1cnc(-c2cc(Cl)ccc2F)nc1Nc1ccncc1C(=O)NCCNc1ccccc1 [Compound 71, 4-[2-(5-Chloro-2-fluoro-phenyl)-5-methoxy-pyrimidin-4-ylamino]-N-(2-phenylamino-ethyl)-nicotinamide]
50 | COc1cnc(-c2cc(Cl)ccc2F)nc1Nc1ccncc1C(=O)NC1CNC1 [Compound 87, N-Azetidin-3-yl-4-[2-(5-chloro-2-fluoro-phenyl)-5-methoxy-pyrimidin-4-ylamino]-nicotinamide]
540 | COc1cnc(-c2cc(Cl)ccc2F)nc1Nc1ccncc1C(=O)NCCCN1CCN(C)CC1 [Compound 38, 4-[2-(5-Chloro-2-fluoro-phenyl)-5-methoxy-pyrimidin-4-ylamino]-N-[3-(4-methyl-piperazin-1-yl)-propyl]-nicotinamide]
20 | COc1cnc(-c2cc(Cl)ccc2F)nc1Nc1ccncc1C(=O)NCCNCC(C)O (centres unmarked) [Compound 5]
24 | COc1cnc(-c2cc(Cl)ccc2F)nc1Nc1ccncc1C(=O)N[C@@H]1CCNC1 [Compound 138, 4-[2-(5-Chloro-2-fluoro-phenyl)-5-methoxy-pyrimidin-4-ylamino]-N-pyrrolidin-3-yl-nicotinamide]
38 | COc1cnc(-c2cc(Cl)ccc2F)nc1Nc1ccncc1C(=O)NC1CC1CO (centres unmarked) [Compound 141, 4-[2-(5-Chloro-2-fluoro-phenyl)-5-methoxy-pyrimidin-4-ylamino]-N-(2-hydroxymethyl-cyclopropyl)-nicotinamide]
6570 | COc1cnc(-c2cc(Cl)ccc2F)nc1Nc1ccncc1C(=O)N1CCN(C)CC1 [Compound 118, {4-[2-(5-Chloro-2-fluoro-phenyl)-5-methoxy-pyrimidin-4-ylamino]-pyridin-3-yl}-(4-methyl-piperazin-1-yl)-methanone]
14100 | COC(=O)[C@H]1C[C@@H](NC(=O)c2cnccc2Nc2nc(-c3cc(Cl)ccc3F)ncc2OC)CN1C(=O)OC(C)(C)C [Compound 88, 4-({4-[2-(5-Chloro-2-fluoro-phenyl)-5-methoxy-pyrimidin-4-ylamino]-pyridine-3-carbonyl}-amino)-pyrrolidine-1,2-dicarboxylic acid 1-tert-butyl ester 2-methyl ester]

Same assay, conditions: 10 uM ATP, 170 nM TGFβ R1, room temperature 20 minutes, read-out: IC50 for Kinase Inhibition

IC50 [nM] | Structure (SMILES)
54 | COc1cnc(-c2cc(Cl)ccc2F)nc1Nc1ccncc1C(=O)NCCCCCNC(=O)CCCC[C@H]1SC[C@@H]2NC(=O)N[C@@H]21 [Compound 202, 4-[2-(5-Chloro-2-fluoro-phenyl)-5-methoxy-pyrimidin-4-ylamino]-N-{5-[5-(2-oxo-hexahydro-thieno[3,4-d]imidazol-6-yl)-pentanoylamino]-pentyl]-nicotinamide]
5 | CC(C)c1cnc(-c2cc(Cl)ccc2F)nc1Nc1ccncc1C(=O)NCCCN1CCC[C@H]1C(=O)N(C)C [Compound 171, 4-[2-(5-Chloro-2-fluoro-phenyl)-5-isopropyl-pyrimidin-4-ylamino]-N-[3-(2-dimethylcarbamoyl-pyrrolidin-1-yl)-propyl]-nicotinamide]
3 | CC(=O)CNC(=O)c1cnccc1Nc1nc(-c2cc(Cl)ccc2F)ncc1C(C)C [Compound 169, 4-[2-(5-Chloro-2-fluoro-phenyl)-5-isopropyl-pyrimidin-4-ylamino]-N-(2-oxo-propyl)-nicatinamide]
5 | CC(C)c1cnc(-c2cc(Cl)ccc2F)nc1Nc1ccncc1C(=O)NC1CC1CO (centres unmarked) [Compound 172, 4-[2-(5-Chloro-2-fluoro-phenyl)-5-isopropyl-pyrimidin-4-ylamino]-N-(2-hydroxymethyl-cyclopropyl)-nicotinamide]
